The values below come from patent US5985603A, “P2x receptor DNA and protein sequence” (Glaxo Group Limited, priority 1994, dated 1999).

The structures appear in SMILES notation.

Format in all cases: cell-based
Experiment [1] has as its target T1, rat vas deferens P2X receptor (Rattus norvegicus, UniProt P47824).
T1 construct: cRNA in Xenopus oocytes; stably transfected CHO cells
T1 sequence (P47824 1-399): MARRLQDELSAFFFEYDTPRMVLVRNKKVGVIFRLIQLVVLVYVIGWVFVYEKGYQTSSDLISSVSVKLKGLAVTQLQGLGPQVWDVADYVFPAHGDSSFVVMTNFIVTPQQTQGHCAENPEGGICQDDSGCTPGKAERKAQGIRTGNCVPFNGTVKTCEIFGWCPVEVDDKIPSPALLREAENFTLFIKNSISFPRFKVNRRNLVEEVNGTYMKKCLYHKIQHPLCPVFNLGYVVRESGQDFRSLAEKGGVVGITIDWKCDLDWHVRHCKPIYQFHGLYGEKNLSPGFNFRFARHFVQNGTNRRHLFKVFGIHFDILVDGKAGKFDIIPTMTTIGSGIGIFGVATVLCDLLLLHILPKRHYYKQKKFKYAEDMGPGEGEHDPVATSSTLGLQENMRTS
The experiment is described as follows: electrophysiological recording in CHO cells stably transfected with rat vas deferens P2X receptor. The following applies: up to 30 μM. An excerpt:
CHO cells were stably transfected by a method used for other ion channels (Claudio, Meth. Enzymol. 207 391-408 (1992)). Transfection was confirmed by a) electro-physiological recording and b) radioligand binding. […] [^3 H]αβmethyleneATP binding was more than 600 cpm per million transfected cells with less than 80 cpm nonspecific binding.

The target in experiment [2] is T2, rat vas/human bladder P2X cDNA clone (Homo sapiens, UniProt P51575).
T2 construct: expressed in transfected cells; host or cells: HEK293 cells (oocytes are also named for the functional characterisation)
T2 sequence (P51575 1-399): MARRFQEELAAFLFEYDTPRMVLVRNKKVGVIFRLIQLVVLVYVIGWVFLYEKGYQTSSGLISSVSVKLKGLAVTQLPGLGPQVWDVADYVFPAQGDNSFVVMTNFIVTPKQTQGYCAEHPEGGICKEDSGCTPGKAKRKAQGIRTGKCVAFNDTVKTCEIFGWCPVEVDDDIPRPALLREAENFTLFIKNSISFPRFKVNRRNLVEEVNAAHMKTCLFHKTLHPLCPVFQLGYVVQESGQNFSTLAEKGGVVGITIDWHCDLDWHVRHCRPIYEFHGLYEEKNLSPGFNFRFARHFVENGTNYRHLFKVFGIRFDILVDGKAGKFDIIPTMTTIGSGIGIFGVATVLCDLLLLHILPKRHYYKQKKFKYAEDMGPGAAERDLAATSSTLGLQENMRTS
Briefly: functional properties of cloned P2X receptors (electrical recordings): bladder. As to the method: DNA concentration used was 1 mg/2 ml medium placed into a 35 mm petri dish containing four 11 mm diameter coverslips on which HEK cells were placed at 10,000 cells per coverslip. […] Currents were recorded from HEK 293 cells using whole-cell recording methods and the AXOPATCH™ 200 amplifier (Axon Instruments); patch pipettes (5 M.OMEGA.) contained (mM) Cs or K aspartate 140, NaCl 5, EGTA 11, HEPES 5. […] All recordings performed at room temperature. Data acquisition and analysis were performed using pCLAMP™ and AXOGRAPH™ software (Axon Instruments). […] ATP was applied by U-tube typically for 1 s; data was sampled at 5 kHz in 2 s segments beginning 300 ms prior to onset of agonist (ATP) application and filtered at 1 kHz.

A further experiment concerns the target T3, PC12 P2X receptor (Rattus norvegicus, UniProt P49653).
T3 construct: host or cells: HEK293 cells (oocytes are also named for the functional characterisation of clone 3)
T3 sequence (P49653 1-472): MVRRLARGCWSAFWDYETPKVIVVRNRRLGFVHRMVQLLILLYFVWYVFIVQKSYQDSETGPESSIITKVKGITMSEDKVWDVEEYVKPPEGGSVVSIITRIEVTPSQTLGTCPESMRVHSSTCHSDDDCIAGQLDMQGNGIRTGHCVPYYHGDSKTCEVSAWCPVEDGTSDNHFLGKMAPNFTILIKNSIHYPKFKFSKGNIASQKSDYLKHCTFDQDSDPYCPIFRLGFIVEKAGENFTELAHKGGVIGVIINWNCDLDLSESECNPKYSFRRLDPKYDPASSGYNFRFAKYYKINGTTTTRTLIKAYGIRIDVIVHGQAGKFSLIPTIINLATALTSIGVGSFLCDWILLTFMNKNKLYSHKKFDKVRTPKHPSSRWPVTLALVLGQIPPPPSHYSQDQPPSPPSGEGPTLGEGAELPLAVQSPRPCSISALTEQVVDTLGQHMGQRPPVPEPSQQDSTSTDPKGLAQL
The experiment is described as follows: functional properties of cloned P2X receptors (electrical recordings): PC12. As to the method: HEK 293 cells were transfected by the lipofectin method (Felgner et al., Proc. Nat'l. Acad. Sci. USA 84 7413-7417 (1987)) with P2X -plasmid. DNA concentration used was 1 mg/2 ml medium placed into a 35 mm petri dish containing four 11 mm diameter coverslips on which HEK cells were placed at 10,000 cells per coverslip. […] Currents were recorded from HEK 293 cells using whole-cell recording methods and the AXOPATCH™ 200 amplifier (Axon Instruments); patch pipettes (5 M.OMEGA.) contained (mM) Cs or K aspartate 140, NaCl 5, EGTA 11, HEPES 5. The external solution was (mM) NaCl 150, KCl2, CaCl2 2, MgCl2 1, HEPES 5 and glucose 11; the pH and osmolarity of both solutions were maintained at 7.3 and 305 mosmol/l respectively. All recordings performed at room temperature. Data acquisition and analysis were performed using pCLAMP™ and AXOGRAPH™ software (Axon Instruments). […] The pH and osmolarity of the solutions were 7.4 and 295 mosmol/l respectively. For single channel measurements, a […]™ 500 amplifier and outside-out recording methods were used (Adelman et al., Neuron 9 209-216 (1992)). Wax-coated patch pipettes (5-10 M.OMEGA.) contained (mM) K-gluconate 115, HEPES 5, BAPTA 5 and MgCl2 0.5, external solution was 96 mM NaCl, 2 mM KCl, 1.8 mM CaCl2, 1 mM MgCl2, 5 mM Hepes pH 7.6, and 5 mM sodium pyruvate.
The functional characterisation of the clone illustrated in FIG. 2 (referred to herein as clone 3) was carried out by electrical recordings from transfected HEK293 cells and from oocytes injected with the in vitro transcribed RNA, as described in Example 4 for the rat vas deferens P2X receptor. Table A summarizes the main properties of clone 3 as compared to those of rat vas/human bladder cDNA clone, and the PC12 cDNA clone (provided by David Julius and Tony Brake of the University of California at San Francisco).

In general, EC50 refers to the concentration needed to bring the measured effect to its halfway point. A higher EC50 goes with lower potency in that assay. In the case of `Nc1ncnc2c1ncn2[C@@H]1O[C@H](COP(=O)([O-])OP(=O)([O-])OP(=O)([O-])[O-])[C@@H](O)[C@H]1O.[Mg+2].[Mg+2]` [ATP, adenosine 5'-triphosphate magnesium salt], in experiment [1], the “rapidly desensitising inward currents, CHO cells responding” value is “rapidly desensitising inward currents in 14 of 14 CHO cells”. For the same compound, the EC50 is 0.7 µM in experiment [2] and 8 µM on PC12 P2X receptor.
